The source of these data is patent US20240142458A1, “FLUORESCENT PROBES FOR QUANTIFICATION OF FREE COPPER” (TECHNISCHE UNIVERSITÄT BERLIN, priority 2020, published 2024).

Data set [1] deals with Caco-2 cells. The data set is described as follows: Fluorescence labeling of Caco-2 enterocytes (emission spectra, confocal imaging). Format: cell-based, human. The following applies: Caco-2 cells, fluorescence spectra and confocal imaging. The protocol:
FIG. 2: Caco-2 fluorescence labeling with Phenylphosphonate-substituted porphyrines. • Caco-2 cells were incubated with increasing concentrations of p-H8TPPA or m-H8TPPA followed by fluorescence measurement (⋅Exc/Em.416 nm/650 nm). Data are means±S.E.M. of n=3 independent experiments.
FIG. 5: Fluorescence labeling of Caco-2 enterocytes by phenylphosphonate-substituted porphyrines. • Fluorescence emission spectra of Caco-2 cells exposed to p-H8TPPA, m-H8TPPA (A) or the isopropyl-modified phosphonate p-H8TPPA-iPr8 (C) in comparison with each of the phenylphosphonate porphyrins as 10 μM dilution in assay buffer (⋅Exc416 nm). (B) Confocal images of Caco-2 upon loading with p-H8TPPA or m-H8TPPA. (D) Confocal images of p-H8TPPA-iPr8 in the presence or absence of Caco-2 cells. Scale bar=10 μm. Data are representative for three independent experiments.
The human intestinal cell line Caco-2 (European Collection of Cell Cultures, Porton Down, UK) were routinely cultured at 37° C., 5% CO2 and humidified atmosphere in Dulbecco's Modified Eagles Medium (DMEM), containing 10% fetal calf serum (FCS) 100 U/mL penicillin and 100 μg/ml streptomycin. For cellular phosphonate porphyrins experiments, Caco-2 cells were transferred into 96 wells (initially seeding 5000 cells per well) and cultured for 14 days for differentiation into an enterocyte-like monolayer^53,54. For phosphonate labeling, differentiated cells were treated with either m-H8TPPA, p-H8TPPA or p-H8TPPA-iPr8 in a HEPES-based incubation buffer (10 mM HEPES, pH 7.35, 120 mM NaCl, 5.4 mM KCl, 5 mM glucose, 1.3 mM CaCl2, 1 mM MgCl2, 1 mM NaH2PO4, 0.3% bovine serum albumin) for […] Excess fluorescent dye was removed by multiple washing steps before fluorescence emission scanning using 416 nm excitation (Tecan Infinite M200 reader; Tecan, Grödig/Salzburg, […]). To analyze metal responsiveness of the intracellular phosphonate porphyrins, cells were post-treated with 50 μM of different metal solutions at 37° C. in an albumin-free incubation buffer in a time-course experiment.
Fluorescence images of phosphonate porphyrin-labeled Caco-2 enterocytes were acquired on a Leica TCS SP8 laser scanning confocal microscope equipped with LAS X 3.5.5.19976 software platform, using a HC PL APO CS2 63×/1.20 water objective. The filters settings were[…]Exc488 nm/[…]Em580 nm; pinhole 111.5 μm, pinhole size 1 AU.

Data set [2] is described as follows: Metal-dependent changes of absorbance and fluorescence properties, cell-free. The following applies: for new absorbance band peak after Cd^2+ treatment: decline of 416 nm maximum; for Soret peak of visible absorption: buffer-control treatment, pH 7.4, 10 μM probe.
Experiment in data set [3]: as above
The following applies: for fluorescence change by iron treatment in vitro: cell-free, FIG. 1. How it is done:
FIG. 1: Metal-dependent changes of p-H8TPPA absorbance and fluorescence properties. • 10 μM p-H8TPPA dilutions were treated with various metal solutions (final concentration 40 μM) before recording (A) absorbance, (B) fluorescence excitation (⋅Em.650 nm) and (C) fluorescence emission (⋅⋅Exc.415 nm) spectra. Data are representative for three independent experiments.
FIG. 3: Metal-dependent changes of m-H8TPPA absorbance and fluorescence properties. • 10 μM m-H8TPPA dilutions were treated with various metal solutions (final concentration 40 μM) before recording (A) absorbance, (B) fluorescence excitation (⋅Em.650 nm) and (C) fluorescence emission (⋅⋅Exc.415 nm) spectra. Data are representative for three independent experiments.
Aiming to use arylphosphonate-tethered porphyrins as real-time cellular metal fluorescence sensors, we first characterized their metal-responsiveness under cell-free conditions. p-H8TPPA (see FIG. 1) and m-H8TPPA (see FIG. 3), were pretreated with various bivalent metal ions at a pH close to the cellular milieu (pH 7.4) before recording absorption and fluorescence spectra. […] Following Co^2+ treatment absorption spectra were less intense, plateau-shaped with a bathochromic broadening up to 434 nm. Hg^2+-treatment red-shifted the Soret band by approximately 30 nm. […] Despite of their restricted fluorescence intensity, the fluorescence emission patterns of all the aforementioned metal-treated arylphosphonate-tethered porphyrins seemed to be […] almost indistinguishable from the buffer-controls (see FIG. 1C, FIGS. 2 and 4). Zn^2+ treatment led to a declined and much more broadened Soret band in the range of 380-430 nm (see FIG. 1A). […] Thus, we assume a fluorescence quenching effect of Zn^2+ that requires further investigation.
Absorption spectra were recorded with a Tecan Infinite M200 Reader (Tecan Austria GmbH, Grödig/Salzburg, Switzerland) from 350 to 500 nm. The same device was used in fluorescence mode to measure fluorescence excitation ([…]; ⋅⋅Em. 650 nm) and fluorescence emission (550-850 nm; ⋅⋅Exc. 415 nm) spectra. 3D scanning was performed on a Spark® multimode microplate reader (Tecan Austria GmbH, Grodig/Salzburg, Switzerland) from 350 to 450 nm (Exc.) and 555 to 850 nm (Em.) with a 5 nm step size, excitation and emission bandwidths of 5 nm, and a detector gain of 100. A typical reaction mix was made by combining equal volumes of 20 μM phosphonate porphyrins diluted in assay-buffer (50 mM HEPES in bidistilled water adjusted to […] with sodium hydroxide solution; depleted of multivalent cations with Chelex® 100 Resin pretreatment^51) and a double-concentrated metal cation solution. Following 30 min incubations at 37° C. absorption or fluorescence measurements were done. For redox conversion tests the CuSO4 solutions were pretreated with 500 μM of L-ascorbic acid before admixing into the phosphonate porphyrin dilutions. To evaluate the effect of metal chelators, the metal cation-treated incubation mixtures were posttreated with 50 equivalents of EDTA or EGTA for 15 min before fluorescence emission readout.

Where [4] appears, read: 10 μM probe, 40 μM metal, pH 7.4.

Turning to `O=P(O)(O)c1cccc(-c2c3nc(c(-c4cccc(P(=O)(O)O)c4)c4ccc([nH]4)c(-c4cccc(P(=O)(O)O)c4)c4nc(c(-c5cccc(P(=O)(O)O)c5)c5ccc2[nH]5)C=C4)C=C3)c1` [m-H8TPPA, 5,10,15,20-tetrakis [m-phenylphosphonic acid] porphyrin], the “passage of the cellular membrane / cellular uptake” value in data set [1] is “pass the cellular membrane”. In data set [2] (setting [4]), the “fluorescence change upon Ca^2+ or Mg^2+ treatment” value was “higher fluorescence”; the “fluorescence change upon Mn^2+ and (far more pronounced) Pb^2+ treatment” value was “dropped markedly”; the “red-shift of the Soret band after Hg^2+ treatment” value was “approximately 30 nm”; the “new absorbance band peak after Cd^2+ treatment” value came to 434 nm. Besides, in data set [2], the “Soret peak of visible absorption” value is recorded as “around 416 nm”. Besides, in data set [3], the “fluorescence change on binding of free divalent Cu, Zn, Pb, Hg, Cd, Co and Mn ions” value is recorded as “fluorescent decrease”; the “fluorescence change on binding of free divalent Fe, Mg and Ca ions” value is listed as “fluorescent increase”; the “fluorescence change by iron treatment in vitro” value is listed as “slightly enhanced”.

For the compound `O=P(O)(O)c1ccc(-c2c3nc(c(-c4ccc(P(=O)(O)O)cc4)c4ccc([nH]4)c(-c4ccc(P(=O)(O)O)cc4)c4nc(c(-c5ccc(P(=O)(O)O)cc5)c5ccc2[nH]5)C=C4)C=C3)cc1` [p-H8TPPA, 5,10,15,20-Tetrakis [p-phenylphosphonic acid] porphyrin], the “passage of the cellular membrane / cellular uptake” value in data set [1] is “pass the cellular membrane”. In data set [2] (setting [4]), the “fluorescence change upon Ca^2+ or Mg^2+ treatment” value is “higher fluorescence”; the “fluorescence change upon Mn^2+ and (far more pronounced) Pb^2+ treatment” value was “dropped markedly”; the “red-shift of the Soret band after Hg^2+ treatment” value is “approximately 30 nm”; the “new absorbance band peak after Cd^2+ treatment” value amounted to 434 nm. Moreover, in data set [2] (10 μM probe, 40 μM metal, pH 7.4, FIG. 1), the “fluorescence emission after Zn^2+ treatment relative to excitation properties” value is reported as “much lower than what would have been expected”. Besides, the “Soret peak of visible absorption” value in data set [2] was “around 416 nm”. In data set [3], the “fluorescence change on binding of free divalent Cu, Zn, Pb, Hg, Cd, Co and Mn ions” value was “fluorescent decrease”; the “fluorescence change on binding of free divalent Fe, Mg and Ca ions” value is listed as “fluorescent increase”; the “fluorescence change by iron treatment in vitro” value is recorded as “slightly enhanced”.
